Publication PMC7642415, “Perturbed structural dynamics underlie inhibition and altered efflux of the multidrug resistance pump AcrB” (Nature Communications, 2020)
Where a SMILES comes first, the peptide text is derived from it.

Columns and labels:
[1] = target: T1, AcrB (Escherichia coli, UniProt P31224, G288D); format: binding
T1 construct: full-length AcrB with C-terminal 6xHis tag, in DDM micelles

[2] = target: T2, AcrB (Escherichia coli, UniProt P31224); assay: differential HDX-MS on purified AcrB WT; format: binding
T2 construct: full-length AcrB with C-terminal 6xHis tag, in DDM micelles
T2 sequence (P31224 whole entry): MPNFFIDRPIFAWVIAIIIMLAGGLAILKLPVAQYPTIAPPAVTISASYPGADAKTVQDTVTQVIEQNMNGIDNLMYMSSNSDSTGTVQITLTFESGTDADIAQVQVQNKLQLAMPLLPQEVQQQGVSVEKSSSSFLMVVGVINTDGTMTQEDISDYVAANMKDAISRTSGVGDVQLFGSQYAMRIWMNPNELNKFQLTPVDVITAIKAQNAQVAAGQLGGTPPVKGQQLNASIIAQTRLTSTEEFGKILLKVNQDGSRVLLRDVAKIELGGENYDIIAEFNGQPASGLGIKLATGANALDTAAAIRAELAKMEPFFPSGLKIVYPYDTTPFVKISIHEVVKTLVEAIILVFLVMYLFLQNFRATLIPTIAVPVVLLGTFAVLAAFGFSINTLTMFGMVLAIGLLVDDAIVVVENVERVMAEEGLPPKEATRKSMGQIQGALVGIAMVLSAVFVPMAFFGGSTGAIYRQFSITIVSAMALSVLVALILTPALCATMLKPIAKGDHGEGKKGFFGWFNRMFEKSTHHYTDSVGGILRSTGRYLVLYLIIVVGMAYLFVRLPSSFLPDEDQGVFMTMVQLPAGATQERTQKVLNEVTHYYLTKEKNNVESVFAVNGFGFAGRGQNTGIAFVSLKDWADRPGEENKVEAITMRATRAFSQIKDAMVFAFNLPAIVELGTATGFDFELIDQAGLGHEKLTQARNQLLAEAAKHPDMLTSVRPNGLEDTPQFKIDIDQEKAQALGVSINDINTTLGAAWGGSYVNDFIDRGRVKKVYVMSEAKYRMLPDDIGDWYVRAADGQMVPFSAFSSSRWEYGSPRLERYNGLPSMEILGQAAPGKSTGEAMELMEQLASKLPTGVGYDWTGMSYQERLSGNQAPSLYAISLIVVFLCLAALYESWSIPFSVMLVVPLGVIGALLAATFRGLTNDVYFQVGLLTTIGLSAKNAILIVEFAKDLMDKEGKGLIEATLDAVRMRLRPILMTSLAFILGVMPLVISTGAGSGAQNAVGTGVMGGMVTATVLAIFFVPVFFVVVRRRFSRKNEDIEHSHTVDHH

T1 sequence (P31224 whole entry G288D): as the sequence (P31224 whole entry) above, with G288D counted along it

NC(N)=NCCC[C@H](NC(=O)[C@@H](N)Cc1ccccc1)C(=O)Nc1ccc2ccccc2c1 [PAβN, phenylalanine-arginine-β-naphthylamide] (HELM PEPTIDE1{F.R.[c1ccc2cc(N[*:1])ccc2c1]}$$$$V2.0)
differential HDX-MS on purified AcrB G288D [1]: Upon substrate binding, PAβN caused reduced HDX within the PC1/PC2 regions for AcrB^G288D | differential HDX-MS on purified AcrB WT [2]: inhibitor binding led to HDX reduction throughout extensive parts of the PC1/PC2 cleft of the drug-binding pockets
